Data set [1] has as its target T1, Integrin alpha-4/beta-1 (Homo sapiens, UniProt P05556+P13612). The data set can be described thus: Inhibition of human VCAM1 binding to integrin alpha4beta1 receptor in human Ramos cells labeled with Calcein AM. Type of data set: cell-based.
For data set [2], the target named is T1, Integrin alpha-4/beta-1. The experiment in a line: Inhibition of human VCAM1 binding to integrin alpha4beta1 receptor in human Ramos cells labeled with Calcein AM relative to (S)-2-(2-chloro-6-methylbenzamido)-3-(4-(2,6-dichlorobenzamido)phenyl)propanoic acid. Type of data set: cell-based.
Data set [3] concerns the target Integrin alpha-4/beta-7 (Homo sapiens) (UniProt P13612+P26010). The data set can be described thus: Inhibition of human MAdCAM1 binding to integrin alpha4beta7 receptor in human RPMI 8866 cells labeled with Calcein AM relative to (S)-2-(2-chloro-6-methylbenzamido)-3-(4-(2,6-dichlorobenzamido)phenyl)propanoic acid. The data set is classed as cell-based.
For the next data set, the target named is T2, Integrin alpha-4/beta-7 (Homo sapiens, UniProt P13612+P26010).
T2 sequence (P13612 whole entry): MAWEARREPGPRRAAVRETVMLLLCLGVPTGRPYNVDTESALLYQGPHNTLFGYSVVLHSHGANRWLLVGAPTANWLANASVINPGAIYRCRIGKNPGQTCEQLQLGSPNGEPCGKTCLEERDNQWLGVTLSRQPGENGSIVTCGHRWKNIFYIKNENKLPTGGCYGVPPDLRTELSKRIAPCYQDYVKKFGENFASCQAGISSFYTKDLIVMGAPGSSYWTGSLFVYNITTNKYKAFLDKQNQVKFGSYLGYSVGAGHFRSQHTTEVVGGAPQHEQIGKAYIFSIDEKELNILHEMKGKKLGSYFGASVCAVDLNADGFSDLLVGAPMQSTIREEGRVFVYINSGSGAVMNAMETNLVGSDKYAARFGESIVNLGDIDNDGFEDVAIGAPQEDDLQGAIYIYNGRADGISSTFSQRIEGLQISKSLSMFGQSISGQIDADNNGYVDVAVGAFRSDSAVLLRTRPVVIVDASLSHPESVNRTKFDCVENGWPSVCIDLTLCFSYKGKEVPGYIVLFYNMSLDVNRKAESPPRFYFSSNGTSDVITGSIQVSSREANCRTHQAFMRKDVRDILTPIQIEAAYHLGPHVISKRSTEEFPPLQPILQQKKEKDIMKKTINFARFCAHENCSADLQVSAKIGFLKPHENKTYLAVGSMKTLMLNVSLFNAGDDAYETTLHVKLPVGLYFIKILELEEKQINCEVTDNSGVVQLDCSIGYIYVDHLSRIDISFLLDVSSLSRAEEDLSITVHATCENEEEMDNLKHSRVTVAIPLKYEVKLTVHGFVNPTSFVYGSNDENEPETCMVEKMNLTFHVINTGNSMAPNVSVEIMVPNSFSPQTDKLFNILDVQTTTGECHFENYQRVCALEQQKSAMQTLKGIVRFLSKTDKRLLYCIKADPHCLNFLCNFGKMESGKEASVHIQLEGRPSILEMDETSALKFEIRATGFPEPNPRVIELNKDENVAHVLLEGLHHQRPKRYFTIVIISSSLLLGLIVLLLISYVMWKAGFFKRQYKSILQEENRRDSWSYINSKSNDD
T2 sequence (P26010 whole entry): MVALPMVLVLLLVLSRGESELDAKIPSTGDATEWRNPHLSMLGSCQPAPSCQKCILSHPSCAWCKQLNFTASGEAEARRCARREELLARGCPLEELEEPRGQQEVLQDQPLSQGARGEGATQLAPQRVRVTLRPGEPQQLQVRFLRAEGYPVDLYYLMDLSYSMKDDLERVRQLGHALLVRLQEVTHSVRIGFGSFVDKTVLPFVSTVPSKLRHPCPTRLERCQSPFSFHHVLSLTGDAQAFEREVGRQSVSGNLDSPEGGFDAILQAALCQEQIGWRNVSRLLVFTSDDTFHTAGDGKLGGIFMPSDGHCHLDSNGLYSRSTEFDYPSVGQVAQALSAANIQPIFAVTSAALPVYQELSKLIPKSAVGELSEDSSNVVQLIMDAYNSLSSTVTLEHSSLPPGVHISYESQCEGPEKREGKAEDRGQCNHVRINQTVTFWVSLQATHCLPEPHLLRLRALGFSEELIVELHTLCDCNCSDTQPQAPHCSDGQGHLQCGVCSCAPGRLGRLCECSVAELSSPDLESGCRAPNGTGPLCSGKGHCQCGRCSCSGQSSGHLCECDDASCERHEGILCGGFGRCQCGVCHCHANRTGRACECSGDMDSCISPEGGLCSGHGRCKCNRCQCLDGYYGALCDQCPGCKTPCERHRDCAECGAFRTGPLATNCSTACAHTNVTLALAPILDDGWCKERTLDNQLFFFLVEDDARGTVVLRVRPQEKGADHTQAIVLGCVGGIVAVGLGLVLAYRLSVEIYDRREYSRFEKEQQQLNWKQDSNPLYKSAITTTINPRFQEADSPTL
The data set can be described thus: Inhibition of human MAdCAM1 binding to integrin alpha4beta7 receptor in human RPMI 8866 cells labeled with Calcein AM. Type of data set: cell-based.

Data set [4] in a line: Oral bioavailability in rat. Type of data set: ADME, organism-based. The settings on record: in vivo.
The nature of data set [5]: Distribution coefficient, log D of the compound. Type of data set: physicochemical. The settings on record: octanol/water.
Data set [6] is described as follows: Apparent permeability across human Caco2 cells. The data set is classed as ADME, cell-based. Conditions: Caco-2. Background: Passage across Caco-2 layers is used to estimate intestinal permeability.

T1 sequence (P05556 whole entry, one chain of several): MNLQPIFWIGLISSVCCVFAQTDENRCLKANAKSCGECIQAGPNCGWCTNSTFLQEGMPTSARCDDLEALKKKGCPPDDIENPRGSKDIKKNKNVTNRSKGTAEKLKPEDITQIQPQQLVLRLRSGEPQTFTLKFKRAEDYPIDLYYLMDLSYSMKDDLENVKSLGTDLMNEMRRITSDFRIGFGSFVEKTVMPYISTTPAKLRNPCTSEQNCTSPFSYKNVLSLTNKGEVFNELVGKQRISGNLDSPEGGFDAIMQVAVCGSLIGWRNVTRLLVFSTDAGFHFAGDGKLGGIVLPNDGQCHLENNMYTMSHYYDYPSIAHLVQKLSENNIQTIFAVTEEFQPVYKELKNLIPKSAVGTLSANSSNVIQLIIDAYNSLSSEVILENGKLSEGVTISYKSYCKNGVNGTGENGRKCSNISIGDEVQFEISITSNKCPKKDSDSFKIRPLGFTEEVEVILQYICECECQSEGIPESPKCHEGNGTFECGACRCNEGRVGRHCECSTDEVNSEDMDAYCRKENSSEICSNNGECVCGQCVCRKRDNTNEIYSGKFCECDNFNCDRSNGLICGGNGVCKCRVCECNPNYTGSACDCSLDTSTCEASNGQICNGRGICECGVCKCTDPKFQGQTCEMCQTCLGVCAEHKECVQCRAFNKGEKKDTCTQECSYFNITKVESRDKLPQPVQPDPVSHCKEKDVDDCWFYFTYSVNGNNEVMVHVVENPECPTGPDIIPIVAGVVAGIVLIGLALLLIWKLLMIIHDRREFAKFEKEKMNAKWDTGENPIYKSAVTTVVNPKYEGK

In general, IC50 refers to the midpoint of a concentration-inhibition curve. Turning to `COc1cccc(Br)c1C(=O)N[C@@H](Cc1ccc(-c2cn(C)c(=O)n(C)c2=O)c(C)c1)C(=O)O`, on Integrin alpha-4/beta-1 [1], the half-maximal inhibitory concentration (IC50) is 255 nM. Also, the Ratio IC50 at Integrin alpha-4/beta-1 [2] is 0.35.
Consider `Cc1cc(C[C@H](NC(=O)c2c(Cl)cccc2Cl)C(=O)O)ccc1-c1cn(C)c(=O)n(C)c1=O`, for which the IC50 on Integrin alpha-4/beta-1 [1] is 56 nM; at Integrin alpha-4/beta-7, 220 nM. The Ratio IC50 in data set [3] is 1.9; at Integrin alpha-4/beta-1 [2] it was 0.68.
`Cn1c(C(F)(F)F)c(-c2ccc(C[C@H](NC(=O)c3c(Cl)cccc3Cl)C(=O)O)cc2)c(=O)n(C)c1=O`: the IC50 at Integrin alpha-4/beta-1 [1] is 196 nM; on Integrin alpha-4/beta-7, 219 nM. Moreover, the Ratio IC50 in data set [3] is 1.3; at Integrin alpha-4/beta-1 [2], 0.46.
Turning to `Cc1cc(C[C@H](NC(=O)c2c(C)cccc2Cl)C(=O)O)ccc1-c1c(C)n(C)c(=O)n(C)c1=O`, the IC50 at Integrin alpha-4/beta-1 [1] is 246 nM; on Integrin alpha-4/beta-7, 254 nM. Moreover, the Ratio IC50 in data set [3] was 1; at Integrin alpha-4/beta-1 [2] it was 0.14.
For orientation: bioavailability means dose-corrected exposure relative to a reference, in per cent. A high value points to good availability. For orientation: logD means lipophilicity at a set pH, counting ionised and neutral species. Read a high logD as higher lipophilicity. What is called Papp is the rate of passage across a membrane or cell layer, normalised by area and donor concentration. For `CCOC(=O)[C@H](Cc1ccc(-c2c(C)n(C)c(=O)n(C)c2=O)cc1)NC(=O)c1c(Cl)cccc1Cl`, the bioavailability in data set [4] is 6%. The compound also yielded a logD in data set [5] of 2.01. Besides, in data set [6], the apparent permeability (Papp) came to 18.3 ×10⁻⁶ cm/s.
For `Cc1c(-c2ccc(C[C@H](NC(=O)c3c(Cl)cccc3Cl)C(=O)O)cc2)c(=O)n(C)c(=O)n1C`, the figures for the IC50 on Integrin alpha-4/beta-1 [1] and on Integrin alpha-4/beta-7 were 8 nM and 35 nM, respectively. Moreover, the Ratio IC50 in data set [3] is 16; at Integrin alpha-4/beta-1 [2], 6.3. For the same compound, the bioavailability in data set [4] came to 1.7%. Further, the logD in data set [5] was -2.02. Further, the Papp in data set [6] amounted to 1.33 ×10⁻⁶ cm/s.
Turning to `Cc1cc(C[C@H](NC(=O)c2c(C)cccc2Cl)C(=O)O)ccc1-c1cn(C)c(=O)n(C)c1=O`, the IC50 at Integrin alpha-4/beta-1 [1] was 81 nM. Moreover, the Ratio IC50 on Integrin alpha-4/beta-1 [2] is 1.
Regarding `CCn1c(C)c(-c2ccc(C[C@H](NC(=O)C3(CCOC)CCCC3)C(=O)O)cc2)c(=O)n(CC)c1=O`, the half-maximal inhibitory concentration (IC50) at Integrin alpha-4/beta-1 [1] is 382 nM; on Integrin alpha-4/beta-7, 565 nM. The Ratio IC50 in data set [3] was 0.46; at Integrin alpha-4/beta-1 [2] it was 0.29.
As for `Cc1c(-c2ccc(C[C@H](NC(=O)c3c(C(C)C)cccc3C(C)C)C(=O)O)cc2)c(=O)n(C)c(=O)n1C`, the IC50 on Integrin alpha-4/beta-1 [1] was 1450 nM; at Integrin alpha-4/beta-7, 1970 nM. Further, the Ratio IC50 was 0.15 in data set [3] and 0.04 at Integrin alpha-4/beta-1 [2].
Consider `Cc1cc(C[C@H](NC(=O)c2c(C)cccc2Br)C(=O)O)ccc1-c1cn(C)c(=O)n(C)c1=O`, for which the IC50 on Integrin alpha-4/beta-1 [1] was 25 nM. Moreover, at Integrin alpha-4/beta-1 [2], the Ratio IC50 is 2.
`Cc1cccc(Cl)c1C(=O)N[C@@H](Cc1ccc(-c2c(C(F)(F)F)n(C)c(=O)n(C)c2=O)cc1)C(=O)O`: the figures for the half-maximal inhibitory concentration (IC50) at Integrin alpha-4/beta-1 [1] and at Integrin alpha-4/beta-7 were 123 nM and 167 nM, respectively. Also, the Ratio IC50 in data set [3] is 2.4; at Integrin alpha-4/beta-1 [2], 0.1.
On to `Cc1c(-c2ccc(C[C@H](NC(=O)c3c(Cl)cccc3C(C)C)C(=O)O)cc2)c(=O)n(C)c(=O)n1C`, for which the IC50 on Integrin alpha-4/beta-1 [1] is 215 nM; at Integrin alpha-4/beta-7 it was 558 nM. Further, the results for the Ratio IC50 (in data set [3]; at Integrin alpha-4/beta-1 [2]) were 1 and 0.13, respectively.
In data set [4], `CCOC(=O)[C@H](Cc1ccc(-c2c(C)n(C)c(=O)n(C)c2=O)cc1)NC(=O)c1c(C)cccc1Cl` registered a bioavailability of 25%. In data set [5], this compound returned a logD of 2.24. Also, the Papp in data set [6] worked out at 34.7 ×10⁻⁶ cm/s.
`CC(=O)OC(C)OC(=O)[C@H](Cc1ccc(-c2c(C)n(C)c(=O)n(C)c2=O)cc1)NC(=O)c1c(F)cccc1F` (some centres undefined) gave a bioavailability in data set [4] of 30%. Further, the logD in data set [5] was 1.61. In data set [6], the Papp was 12 ×10⁻⁶ cm/s.
For the compound `CCn1c(C)c(-c2ccc(C[C@H](NC(=O)c3c(Cl)cccc3Cl)C(=O)O)cc2)c(=O)n(CC)c1=O`, the IC50 was 63 nM at Integrin alpha-4/beta-1 [1] and 124 nM at Integrin alpha-4/beta-7. The Ratio IC50 in data set [3] is 4.8; on Integrin alpha-4/beta-1 [2], 0.8.
In the case of `Cc1cc(C[C@H](NC(=O)c2c(Cl)cccc2Cl)C(=O)O)ccc1-c1c(C)n(C)c(=O)n(C)c1=O`, the 50% inhibitory concentration (IC50) on Integrin alpha-4/beta-1 [1] is 10 nM; at Integrin alpha-4/beta-7, 168 nM. The Ratio IC50 is 3.6 in data set [3] and 1.1 on Integrin alpha-4/beta-1 [2].
Regarding `CCn1c(C)c(-c2ccc(C[C@H](NC(=O)c3c(C)cccc3Cl)C(=O)O)cc2)c(=O)n(CC)c1=O`, the IC50 is 296 nM on Integrin alpha-4/beta-1 [1] and 164 nM on Integrin alpha-4/beta-7. Moreover, the Ratio IC50 in data set [3] was 1.7; at Integrin alpha-4/beta-1 [2], 0.37.
As for `COCCC1(C(=O)N[C@@H](Cc2ccc(-c3cn(C)c(=O)n(C)c3=O)c(C)c2)C(=O)O)CCCC1`, the IC50 on Integrin alpha-4/beta-1 [1] is 64 nM. At Integrin alpha-4/beta-1 [2], the Ratio IC50 was 0.8.
For the compound `COCCC1(C(=O)N[C@@H](Cc2ccc(-c3c(C)n(C)c(=O)n(C)c3=O)cc2)C(=O)O)CCCC1`, the IC50 on Integrin alpha-4/beta-1 [1] is 287 nM; on Integrin alpha-4/beta-7, 324 nM. In addition, the Ratio IC50 in data set [3] is 1; at Integrin alpha-4/beta-1 [2] it was 0.49.
With `Cc1cccc(Cl)c1C(=O)N[C@@H](Cc1ccc(-c2c(C)n(C)c(=O)n(C)c2=O)cc1)C(=O)O`, the IC50 on Integrin alpha-4/beta-1 [1] was 35 nM; on Integrin alpha-4/beta-7 it was 58 nM. Also, the Ratio IC50 is 6.1 in data set [3] and 2.1 at Integrin alpha-4/beta-1 [2]. In data set [4], this compound came in with a bioavailability of 10%. In addition, the logD in data set [5] was -1.76. The Papp in data set [6] came to 2.9 ×10⁻⁶ cm/s.
For `CCc1cccc(Cl)c1C(=O)N[C@@H](Cc1ccc(-c2c(C)n(C)c(=O)n(C)c2=O)cc1)C(=O)O`, the IC50 was 87 nM at Integrin alpha-4/beta-1 [1] and 151 nM on Integrin alpha-4/beta-7. Also, the Ratio IC50 is 2.3 in data set [3] and 0.53 at Integrin alpha-4/beta-1 [2].

These data come from ChEMBL document CHEMBL2331362, “Identification of N-acyl 4-(5-pyrimidine-2,4-dionyl)phenylalanine derivatives and their orally active prodrug esters as dual-acting alpha4-beta1 and alpha4-beta7 receptor antagonists” (Bioorg Med Chem Lett, 2013).
